This is an account of results in patent US8227497B2, “Dual-acting antihypertensive agents” (Theravance, Inc., priority 2008, dated 2012).

One assay has as its target T1, human AT1 receptor (Homo sapiens, UniProt P30556).
T1 construct: expressed in transfected cells; membranes
T1 sequence (P30556 1-359): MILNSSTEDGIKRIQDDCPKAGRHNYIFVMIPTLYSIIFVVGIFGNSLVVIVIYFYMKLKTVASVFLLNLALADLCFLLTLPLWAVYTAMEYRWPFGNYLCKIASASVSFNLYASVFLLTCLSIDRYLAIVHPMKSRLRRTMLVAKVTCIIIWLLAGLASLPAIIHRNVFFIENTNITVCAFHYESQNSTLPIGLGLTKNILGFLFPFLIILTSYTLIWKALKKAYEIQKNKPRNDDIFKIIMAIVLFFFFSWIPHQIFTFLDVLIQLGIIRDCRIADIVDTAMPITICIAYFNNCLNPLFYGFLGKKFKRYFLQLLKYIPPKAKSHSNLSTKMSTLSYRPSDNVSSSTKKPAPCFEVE
Kind of assay: AT1 radioligand binding assay (Assay 1). Conditions: displacement of [Eu]AngII, membranes of CHO-K1 cells expressing human AT1 receptor; read-out: pKi at the AT1 receptor (converted). Here is the method: These in vitro assays were used to assess the ability of test compounds to bind to the AT1 and the AT2 receptors.
Chinese hamster ovary (CHO-K1) derived cell lines stably expressing the cloned human AT1 or AT2 receptors, respectively, were grown in HAM's-F12 medium supplemented with 10% fetal bovine serum, 10 μg/ml penicillin/streptomycin, and 500 μg/ml geneticin in a 5% CO2 humidified incubator at 37° C. AT2 receptor expressing cells were grown in the additional presence of 100 nM PD123,319 (AT2 antagonist). When cultures reached 80-95% confluence, the cells were washed thoroughly in PBS and lifted with 5 mM EDTA. Cells were pelleted by centrifugation and snap frozen in MeOH-dry ice and stored at −80° C. until further use.
For membrane preparation, cell pellets were resuspended in lysis buffer (25 mM Tris/HCl pH 7.5 at 4° C., 1 mM EDTA, and one tablet of Complete Protease Inhibitor Cocktail Tablets with 2 mM EDTA per 50 mL buffer (Roche cat. #1697498, Roche Molecular Biochemicals, Indianapolis, Ind.)) and homogenized using a tight-fitting Dounce glass homogenizer (10 strokes) on ice. The homogenate was centrifuged at 1000×g, the supernatant was collected and centrifuged at 20,000×g. […] Protein concentration of the membrane suspension was determined by the method described in Bradford (1976) Anal Biochem. 72:248-54. […]

A further assay deals with T2, NEP enzyme (Homo sapiens, UniProt P08473).
T2 construct: purchased R&D Systems, Minneapolis, Minn; 1182-ZN
T2 sequence (P08473 52-750 limits assumed): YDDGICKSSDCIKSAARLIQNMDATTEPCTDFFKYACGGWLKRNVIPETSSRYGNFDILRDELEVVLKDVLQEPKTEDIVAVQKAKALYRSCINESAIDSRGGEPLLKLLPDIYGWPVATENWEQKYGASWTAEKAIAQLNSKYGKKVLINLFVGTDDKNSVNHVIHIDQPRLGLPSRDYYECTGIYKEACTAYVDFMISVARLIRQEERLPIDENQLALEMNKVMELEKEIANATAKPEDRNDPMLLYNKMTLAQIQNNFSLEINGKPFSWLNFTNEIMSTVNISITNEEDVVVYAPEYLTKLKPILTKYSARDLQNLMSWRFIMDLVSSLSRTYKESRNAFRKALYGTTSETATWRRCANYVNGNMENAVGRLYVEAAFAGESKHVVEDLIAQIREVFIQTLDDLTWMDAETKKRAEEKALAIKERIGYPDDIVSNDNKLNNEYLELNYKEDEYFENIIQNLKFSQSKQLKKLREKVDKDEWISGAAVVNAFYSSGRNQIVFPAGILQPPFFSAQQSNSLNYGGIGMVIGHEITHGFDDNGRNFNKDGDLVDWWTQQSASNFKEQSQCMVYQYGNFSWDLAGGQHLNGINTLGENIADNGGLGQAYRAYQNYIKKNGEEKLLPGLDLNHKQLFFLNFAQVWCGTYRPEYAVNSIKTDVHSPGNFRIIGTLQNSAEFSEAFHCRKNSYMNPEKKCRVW
Kind of assay: In vitro NEP enzyme inhibition assay (Assay 2). In kind it is biochemical. The note with it: fluorogenic peptide substrate, room temperature; read-out: pIC50 for the NEP enzyme (converted). Here is the method: The inhibitory activities of compounds at human and rat NEP and human ACE were determined using in vitro assays as described below.
Rat NEP was prepared from the kidneys of adult Sprague Dawley rats. Whole kidneys were washed in cold PBS and brought up in ice-cold lysis buffer (1% Triton X-114, 150 mM NaCl, 50 mM Tris pH 7.5; Bordier (1981) J. Biol. Chem. 256:1604-1607) in a ratio of 5 mL of buffer for every gram of kidney. Samples were homogenized using a polytron hand held tissue grinder on ice. Homogenates were centrifuged at 1000×g in a swinging bucket rotor for 5 minutes at 3° C. The pellet was resuspended in 20 mL of ice cold lysis buffer and incubated on ice for 30 minutes. […] Protein concentrations were quantitated using a BCA detection system with BSA as a standard. […]
The assays were performed in 384-well white opaque plates at room temperature using the respective fluorogenic peptides at a concentration of 10 μM in Assay Buffer (50 mM Tris/HCl at 25° C., 100 mM NaCl, 0.01% Tween-20, 1 μM Zn, 0.025% BSA). […] The rat NEP enzyme preparation was used at a concentration that yielded quantitative proteolysis of 3 μM of Mca-RRL within 20 minutes at room temperature. […]
Plates were read on a fluorometer with excitation and emission wavelengths set to 320 nm and 405 nm, respectively. […]

The structures appear in SMILES notation.

As to `CCCCc1nc(Cl)c(CO)n1Cc1ccc(-c2ccccc2S(=O)(=O)NC(=O)CNC(=O)C(Cc2ccccc2)C(=O)NO)cc1` (centres unmarked) [Example 1, 2-Benzyl-N-{2-[4′-(2-butyl-4-chloro-5-hydroxymethylimidazol-1-ylmethyl)biphenyl-2-sulfonylamino]-2-oxoethyl}-N′-hydroxymalonamide.(C2HF3O2)], on human AT1 receptor, the Ki is below 100 nM. For the same compound, the IC50 at NEP enzyme was at most 100 nM.
